Reference: US4808621A, “Trans-6-[2-(N-heteroaryl-3,5-disubstituted)pyrazol-4-yl)-ethyl]- or ethenyl]tetrahydro-4-hydroxypyran-2-one inhibitors of cholesterol biosynthesis” (Warner-Lambert Company, priority 1987, dated 1989)

Columns and labels:
[1] = test system: sterol synthesis by rat liver homogenate; experiment: CSI screen: inhibition of incorporation of 14C-acetate into nonsaponifiable lipid by rat liver homogenate (sterol synthesis); format: biochemical; details: 50% inhibition of sterol synthesis over a one-hour period, liver homogenate of cholestyramine-fed rats
Description: The ability of compounds of the present invention to inhibit the biosynthesis of cholesterol was measured by two methods. A first method (designated CSI screen) utilized the procedure described by R. E. Dugan et al., Archiv. Biochem. Biophys., (1972), 152, 21-27. In this method, the level of HMG-CoA enzyme activity in standard laboratory rats is increased by feeding the rats a chow diet containing 5% cholestyramine for four days, after which the rats are sacrificed.
The rat livers are homogenized, and the incorporation of ^14 C-acetate into nonsaponifiable lipid by the rat liver homogenate is measured. The micromolar concentration of compound required for 50% inhibition of sterol synthesis over a one-hour period is measured, and expressed as an IC50 value.

HMG-CoA reductase = target: T1, HMG-CoA reductase (Rattus norvegicus, UniProt P51639); experiment: COR screen: conversion of 14C-HMG-CoA to 14C-mevalonate by purified HMG-CoA reductase; format: biochemical; details: purified enzyme preparation of HMG-CoA reductase, 14C-HMG-CoA converted to 14C-mevalonate
T1 sequence (P51639 1-887): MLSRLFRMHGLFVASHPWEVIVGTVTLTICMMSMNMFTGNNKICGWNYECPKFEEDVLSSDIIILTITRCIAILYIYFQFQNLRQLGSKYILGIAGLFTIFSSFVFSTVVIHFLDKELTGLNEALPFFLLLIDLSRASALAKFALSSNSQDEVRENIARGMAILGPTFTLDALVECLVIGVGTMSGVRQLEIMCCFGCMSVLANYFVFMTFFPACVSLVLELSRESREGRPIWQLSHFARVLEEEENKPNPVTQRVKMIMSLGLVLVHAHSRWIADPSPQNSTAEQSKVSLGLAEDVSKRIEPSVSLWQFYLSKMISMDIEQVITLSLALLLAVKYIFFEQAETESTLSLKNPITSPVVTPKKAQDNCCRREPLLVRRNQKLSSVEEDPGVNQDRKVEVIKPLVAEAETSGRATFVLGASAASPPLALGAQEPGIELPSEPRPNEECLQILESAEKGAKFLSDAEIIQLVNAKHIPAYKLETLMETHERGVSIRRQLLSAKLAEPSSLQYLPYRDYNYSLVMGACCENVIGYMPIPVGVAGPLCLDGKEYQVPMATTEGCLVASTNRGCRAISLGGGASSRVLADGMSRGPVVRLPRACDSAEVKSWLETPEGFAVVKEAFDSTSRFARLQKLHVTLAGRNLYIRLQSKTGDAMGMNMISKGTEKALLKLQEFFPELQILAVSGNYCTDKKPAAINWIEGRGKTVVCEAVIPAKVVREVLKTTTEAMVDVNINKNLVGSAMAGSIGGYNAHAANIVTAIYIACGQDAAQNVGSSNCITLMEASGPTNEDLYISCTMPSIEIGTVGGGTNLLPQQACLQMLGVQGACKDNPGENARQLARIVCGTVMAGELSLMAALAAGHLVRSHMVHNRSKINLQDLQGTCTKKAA
Description: A second method (designated COR screen) employed the procedure detailed by T. Kita, et al., J. Clin. Invest., (1980), 66: 1094-1100. In this method, the amount of ^14 C-HMG-CoA converted to ^14 C-mevalonate in the presence of a purified enzyme preparation of HMG-CoA reductase was measured. The micromolar concentration of compound required for 50% inhibition of cholesterol synthesis was measured and recorded as an IC50 value.

IC50 [1]	IC50 (HMG-CoA reductase)	Compound
39 nM	110 nM	CC(C)c1nn(-c2ccccn2)c(-c2ccc(F)cc2)c1CC[C@H]1C[C@H](O)CC(=O)O1 (relative stereo) [Compound 1, trans-6-[2-[5-(4-fluorophenyl)-3-(1-methylethyl)-1-(2-pyridinyl)-1H-pyrazol-4-yl]ethyl]tetrahydro-4-hydroxy-2H-pyran-2-one]
26 nM		CC[C@H](C)C(=O)O[C@H]1CCC=C2C=C[C@H](C)[C@H](CC[C@@H]3C[C@@H](O)CC(=O)O3)[C@H]21 [Compactin, reference compound]
